Legend:
Diaphorase [1] = assay: Inhibition of diaphorase by dicoumarol: NADH and dicoumarol titrated into PBS exposed to diaphorase-coated carbon working electrodes; type: biochemical
Procedure: (§1) Example 1: Inhibition of Diaphorase by Dicoumarol. For this example, the spotting formulations shown in Table 1 below were coated onto separate carbon working electrodes. A micro-syringe was use to deposit 35 nL of each formulation as a single spot having an area of around 0.2 mm^2 upon separate carbon working electrodes. Following deposition, the working electrodes were cured overnight at 25° C.
The electrodes were exposed to fresh phosphate buffered saline (PBS) solutions, and varying amounts of NADH and dicoumarol were then titrated into the buffered solutions. No glucose or GDH was added to “power” the sensors and complete the enzyme system specified above (FIG. 3B). […] To the buffered solution containing 30 μM NADH was then titrated dicoumarol up to a concentration of 100 μM. […] FIG. 10 is a graph showing the results of titrating NADH and dicoumarol (DCM) into PBS solutions exposed to the analyte sensors of Example 1 (Sensors 1-4). […] A higher signal resulted for Sensor 2 as a result of its higher concentration of diaphorase. Given the goal of making the sensor response to be diaphorase limited, further optimization work centered around optimizing the sensor response at a low-concentration loading of the diaphorase. […]

Diaphorase [2] = assay: Detection of dicoumarol with sensors whose active area holds glucose dehydrogenase, NAD and rate-limiting diaphorase: glucose and dicoumarol titrated into PBS; type: biochemical; details: Sensors 5-8; PBS with 500 μM NAD, glucose up to 50 μM; DCM titrated up to 160 μM
Procedure: as §1, with “2: Detection” for “1: Inhibition”, “Dicoumarol Using an Analyte Sensor Having an Active Area with Glucose Dehydrogenase and a Rate-Limited Electron Transfer to the Working Electrode.” for “Diaphorase by Dicoumarol.”, “2” for “1”
Glucose and dicoumarol were then titrated to PBS solutions in which the sensors were immersed. A 500 μM quantity of NAD was first added to the buffer solution, followed by three additions of glucose up to 50 μM. Thereafter, dicoumarol (DCM) was titrated up to 160 μM. FIGS. 14A and 14B are graphs showing the results of titrating glucose and dicoumarol (DCM) into PBS solutions exposed to electrodes having variable amounts of NAD-dependent glucose dehydrogenase in an active area thereon. […] As shown, increasing amounts of glucose dehydrogenase increased the signal response during glucose addition and during DCM addition.

normalized sensor response as a function of dicoumarol concentration (FIGS. 11A, 11B, 13) (Diaphorase [1]; 0.2 mg/mL diaphorase, 0.4 mg/mL electron transfer agent, NADH titrated up to 160 μM): strong inhibition
sensor signal as the dicoumarol concentration increased (FIG. 10) (Diaphorase [1]; only Sensors 2 and 4 (0.4 mg/mL Formula 1 polymer), PBS with 30 μM NADH, dicoumarol titrated up to 100 μM, no glucose or GDH): sudden and sensitive decrease in signal
SMILES: O=c1oc2ccccc2c(O)c1Cc1c(O)c2ccccc2oc1=O [dicoumarol]
sensor current response during DCM addition (FIGS. 14A, 14B) (Diaphorase [2]): response decreased as increasing amounts of DCM were added

Source: patent publication US20210369155A1, “Analyte Sensors and Sensing Methods for Detecting Inhibitors of Diaphorase” (Abbott Diabetes Care Inc., priority 2020, published 2021)
